Reference: patent US20220283177A1, “METHOD FOR DETECTING INTERACTION AND AFFINITY BETWEEN LIGAND AND PROTEIN” (DALIAN INSTITUTE OF CHEMICAL PHYSICS, CHINESE ACADEMY OF …, priority 2019, published 2022)

Tests used:
CDK9 [1] = target: T1, CDK9 (Homo sapiens, UniProt P50750); assay: CA-based SIP, western blotting, SNS-032; format: binding; details: 100 μM SNS-032, 293T cell lysate, CA gradient
Source text: The procedure of western blotting was as same as Sample 1.

CDK9 [2] = target: T1, CDK9; assay: Solvent mixture (A.E.A.)-based SIP, western blotting, SNS-032; details: 100 μM SNS-032, 293T cell lysate, high percentage of A.E.A.
Source text: (§1) One portion of the supernatants was used for western blotting analysis and the left portion was used for MS-based quantification.

GSK-3a = GSK-3a (Homo sapiens, UniProt P49840); assay: Solvent mixture (A.E.A.)-based SIP, quantitative proteomics, SNS-032; details: 100 μM SNS-032, 293T cell lysate, 13% A.E.A. (FIG. 2F)
GSK-3a, sequence (P49840 whole entry): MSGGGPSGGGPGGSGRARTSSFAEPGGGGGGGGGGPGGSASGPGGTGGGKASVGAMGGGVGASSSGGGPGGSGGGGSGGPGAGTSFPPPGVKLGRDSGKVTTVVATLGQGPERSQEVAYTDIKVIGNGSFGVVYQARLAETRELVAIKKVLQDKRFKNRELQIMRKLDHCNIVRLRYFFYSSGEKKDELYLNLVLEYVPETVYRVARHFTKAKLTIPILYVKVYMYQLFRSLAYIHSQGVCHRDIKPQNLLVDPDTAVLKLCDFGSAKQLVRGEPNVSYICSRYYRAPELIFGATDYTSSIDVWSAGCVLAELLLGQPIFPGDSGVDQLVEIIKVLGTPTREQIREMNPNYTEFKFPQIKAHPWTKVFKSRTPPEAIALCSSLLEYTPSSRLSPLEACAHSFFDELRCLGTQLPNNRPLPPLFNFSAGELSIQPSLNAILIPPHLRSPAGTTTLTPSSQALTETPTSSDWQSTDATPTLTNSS
Source text: as §1

[3] = withdrawn from clinical trials; cited from earlier work
NDUFV1 = NDUFV1 (Homo sapiens, UniProt P49821); assay: Affinity evaluation by solvent mixture-based SIP dose response (western blotting)
NDUFV1, sequence (P49821 21-464): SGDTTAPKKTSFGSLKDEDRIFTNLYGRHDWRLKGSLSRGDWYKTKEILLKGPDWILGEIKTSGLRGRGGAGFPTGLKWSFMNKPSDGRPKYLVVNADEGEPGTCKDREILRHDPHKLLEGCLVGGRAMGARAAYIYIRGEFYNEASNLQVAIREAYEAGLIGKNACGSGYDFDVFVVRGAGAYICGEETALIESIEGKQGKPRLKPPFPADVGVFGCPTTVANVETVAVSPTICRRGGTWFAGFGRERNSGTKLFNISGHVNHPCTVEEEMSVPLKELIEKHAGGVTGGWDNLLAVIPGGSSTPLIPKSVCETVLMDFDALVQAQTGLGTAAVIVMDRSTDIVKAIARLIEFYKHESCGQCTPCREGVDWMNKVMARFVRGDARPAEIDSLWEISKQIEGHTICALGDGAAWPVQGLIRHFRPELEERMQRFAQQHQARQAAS
Source text: The calculation equation: Y=min+(max−min)/(1+10^((Log EC50−X)*Hill Slope)), Y is the protein abundance, X is the different drug concentrations, min and max are the minimum and maximum values of the corresponding protein abundance on the Y axis, respectively. Hill Slope is the absolute value of the maximum slope of the curve (i.e., the midpoint of the curve).

T1 sequence (P50750 whole entry): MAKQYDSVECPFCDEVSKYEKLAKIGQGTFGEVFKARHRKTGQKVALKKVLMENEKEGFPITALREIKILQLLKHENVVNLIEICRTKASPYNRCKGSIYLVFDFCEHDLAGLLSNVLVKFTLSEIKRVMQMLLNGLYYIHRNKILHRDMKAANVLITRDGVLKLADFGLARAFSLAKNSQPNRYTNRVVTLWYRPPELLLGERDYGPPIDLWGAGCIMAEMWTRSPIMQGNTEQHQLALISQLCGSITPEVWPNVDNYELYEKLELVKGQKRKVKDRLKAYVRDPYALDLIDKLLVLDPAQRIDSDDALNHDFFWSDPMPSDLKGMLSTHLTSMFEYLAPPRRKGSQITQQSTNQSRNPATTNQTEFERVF
T1 sequence (O60563 whole entry partner): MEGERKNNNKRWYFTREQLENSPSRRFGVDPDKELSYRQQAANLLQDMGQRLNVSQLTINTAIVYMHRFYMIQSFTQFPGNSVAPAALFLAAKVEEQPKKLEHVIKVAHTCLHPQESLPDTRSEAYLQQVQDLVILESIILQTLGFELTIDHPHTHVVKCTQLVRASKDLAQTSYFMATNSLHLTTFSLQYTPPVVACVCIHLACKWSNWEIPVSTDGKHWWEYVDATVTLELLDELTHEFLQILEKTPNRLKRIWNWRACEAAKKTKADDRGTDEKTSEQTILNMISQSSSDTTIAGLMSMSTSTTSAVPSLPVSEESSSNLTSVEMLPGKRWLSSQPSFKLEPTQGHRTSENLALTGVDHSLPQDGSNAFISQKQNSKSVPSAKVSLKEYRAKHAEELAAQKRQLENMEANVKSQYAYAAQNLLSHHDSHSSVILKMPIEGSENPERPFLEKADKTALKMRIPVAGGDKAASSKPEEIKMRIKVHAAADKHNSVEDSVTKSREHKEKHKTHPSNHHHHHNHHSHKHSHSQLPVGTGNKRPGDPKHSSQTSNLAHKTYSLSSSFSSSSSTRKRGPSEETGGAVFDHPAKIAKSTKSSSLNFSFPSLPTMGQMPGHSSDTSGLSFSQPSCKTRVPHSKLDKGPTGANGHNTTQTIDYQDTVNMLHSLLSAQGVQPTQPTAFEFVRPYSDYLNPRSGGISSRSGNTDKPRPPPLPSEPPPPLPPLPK

| stabilization of CDK9 by western blotting (CDK9 [2]) | average log 2 FC (H/L normalization ratio) of GSK-3a (GSK-3a) | EC50 (NDUFV1) [µM] | SMILES | abundance of CDK9 by western blotting (CDK9 [1]) | side effects in clinical trials [3] |
| --- | --- | --- | --- | --- | --- |
| significant stabilization shifts | 1.13 | – | CC(C)(C)c1cnc(CSc2cnc(NC(=O)C3CCNCC3)s2)o1 [SNS-032] | higher as compared with that in the control group | – |
| – | – | 10 to 100 | COC1=C2C[C@@H](C)C[C@H](OC)[C@H](O)[C@@H](C)/C=C(\C)[C@H](OC(N)=O)[C@@H](OC)/C=C\C=C(/C)C(=O)NC(=CC1=O)C2=O [geldanamycin] | – | severe hepatotoxicity |
